{"source": "patent US10076519B2", "about": "(CYTOKINETICS, INC., priority 2010, dated 2018)"}
{"test_system": "rabbit skeletal myofibrils (fast skeletal myofibrils)", "test": "Activation of fast skeletal myofibrils (PUMA assay, PK/LDH-coupled ATPase at pCa25)", "format": "biochemical", "conditions": "AC1.4 determined according to the procedure of Example 39; reported as class symbols", "method": "(§1) Preparation of Fast Skeletal Myofibrils.\n(§2) Rabbit skeletal myofibrils were prepared based upon the method of Herrmann et al. (Biochem. 32(28):7255-7263(1993). Myofibrils were prepared from rabbit psoas muscle purchased from Pel-Freez Biologicals (Arkansas) within 2 days of ordering, stored on ice. Minced muscle was homogenized in 10 volumes of ice-cold “standard” buffer (50 mM Tris, pH 7.4, 0.1M potassium acetate, 5 mM KCl, 2 mM DTT, 0.2 mM PMSF, 10 μM leupeptin, 5 μM pepstatin, and 0.5 mM sodium azide) containing 5 mM EDTA and 0.5% Triton X-100 using an Omni-Macro homogenizer. Myofibrils were recovered by low speed centrifugation (3000 rpm for 10 minutes) and washed 2 times in the Triton X-100 containing buffer to ensure removal of cellular membrane. Following the Triton washes, myofibrils were washed 3 times in “standard” buffer containing 2 mM magnesium acetate. A final wash in assay buffer (12 mM PIPES, pH 6.8, 60 mM KCl, 1 mM DTT) was performed and brought to 10% sucrose for flash freezing in liquid nitrogen and storage at −80° C.\n(§3) Activation of Fast Skeletal Myofibrils.\n(§4) Fast fiber activators were identified by measuring the enzymatic activity of muscle myofibril preparations using the proprietary PUMA™ (see, e.g., U.S. Pat. Nos. 6,410,254, 6,743,599, 7,202,051, and 7,378,254) assay system. Myofibril preparations consisted of rabbit skeletal muscle (approximately 90% fast fibers) that had been mechanically homogenized and washed with a detergent (triton X-100) to remove cellular membranes. This preparation retained all of the sarcomeric components in a native conformation and the enzymatic activity was still regulated by calcium. Compounds were tested using a myofibril suspension and a level of calcium sufficient to increase enzymatic activity of the myofibrils to 25% of their maximal rate (termed pCa25). Enzymatic activity was tracked via a pyruvate kinase and lactate dehydrogenase-coupled enzyme system. This assay regenerates myosin-produced ADP into ATP by oxidizing NADH, producing an absorbance change at 340 nm. The buffering system was 12 mM Pipes, 2 mM MgCl2, 1 mM DTT at pH 6.8 (PM12 buffer).\n(§5) Using procedures similar to those described herein, utilizing reagents and intermediates commercially available (e.g., Sigma-Aldrich, St. Louis, Mo.) or readily synthesized by one of skill in the art, the compounds in Table 2 were synthesized, characterized and tested. AC1.4 values were determined according to the procedure described in Example 39, and the reported median AC1.4 values are as follows: A=<1 uM; B=1-10 uM; C=10-20 uM; D=>20 uM."}
{"smiles": "NC(=O)c1cncc(-c2ccc(NCC3(c4ccc(F)cc4)CC3)nn2)c1", "note": "[5-[6-({[(4-fluorophenyl)cyclopropyl]meth-yl}amino)pyridazin-3-yl]pyridine-3-carboxamide]", "Mean AC1.4": "B (B=1-10 uM)"}
{"smiles": "CC(CNc1ccc(-c2cccc(C(N)=O)c2)nn1)N1CCCCC1=O", "note": "(stereo not shown)", "Mean AC1.4": "D (D=>20 uM)"}
{"smiles": "CC(C)(CNc1ccc(-c2ccccc2F)nn1)c1ccc(F)cc1", "note": "[[2-(4-fluorophenyl)-2-methylpropyl][6-(2-fluorophenyl)pyridazin-3-yl]amine]", "Mean AC1.4": "A (A=<1 uM)"}
{"smiles": "CC(C)(CNc1ccc(-c2cccc(C(N)=O)c2)nn1)c1ccccc1Cl", "note": "[3-(6-{[2-(2-chlorophenyl)-2-methylpropyl]amino}pyridazin-3-yl)benzamide]", "Mean AC1.4": "A (A=<1 uM)"}
{"smiles": "CC(C)(CNc1ccc(-c2ccc(C(=O)O)c(F)c2)nn1)c1ccc(F)cc1", "note": "[2-fluoro-4-(6-{[2-(4-fluorophenyl)-2-methylpropyl]amino}pyridazin-3-yl)benzoic acid]", "Mean AC1.4": "D (D=>20 uM)"}
{"smiles": "NCC(=O)Nc1n[nH]c2ccc(-c3ccc(NCC4(c5ncccc5F)CCC4)nn3)cc12", "Mean AC1.4": "B (B=1-10 uM)"}
{"smiles": "CC(C)(CNc1ccc(-c2ccccn2)nn1)c1ccc(F)cc1", "note": "[[2-(4-fluorophenyl)-2-methylpropyl](6-(2-pyridyl)pyridazin-3-yl)amine]", "Mean AC1.4": "B (B=1-10 uM)"}
{"smiles": "CC(C)(CNc1ccc(-c2cccc(Cl)c2)nn1)c1ccc(F)cc1", "note": "[[6-(3-chlorophenyl)pyridazin-3-yl][2-(4-fluorophenyl)-2-methylpropyl]amine]", "Mean AC1.4": "A (A=<1 uM)"}
{"smiles": "CS(=O)(=O)Nc1cccc(-c2ccc(NCC3(c4ncccc4F)CCC3)nn2)c1", "Mean AC1.4": "B (B=1-10 uM)"}
{"smiles": "N#Cc1ccnc(C2(CNc3ccc(-c4ccc5[nH]ncc5c4)nn3)CCC2)c1", "Mean AC1.4": "A (A=<1 uM)"}
{"smiles": "NC(=O)c1cccc(-c2ccc(NCC3(c4ncccc4F)CCC3)nn2)c1", "Mean AC1.4": "A (A=<1 uM)"}
{"smiles": "CC(Nc1ccc(-c2cccc(C(N)=O)c2)nn1)c1ccccc1", "note": "(stereo not shown)", "Mean AC1.4": "D (D=>20 uM)"}
{"smiles": "CC(C)(CNc1ccc(-c2cccc(C(=O)NCCO)c2)nn1)c1ccc(F)cc1", "note": "[[3-(6-{[2-(4-fluorophenyl)-2-methylpropyl]amino}pyridazin-3-yl)phenyl]-N-(2-hydroxyethyl)carboxamide]", "Mean AC1.4": "B (B=1-10 uM)"}
{"smiles": "CC(C)(CNc1ccc(-c2ccc3c(N)n[nH]c3c2)nn1)c1ccc(F)cn1", "note": "[[6-(3-amino(1H-indazol-6-yl))pyridazin-3-yl][2-(5-fluoro(2-pyridyl))-2-methylpropyl]amine]", "Mean AC1.4": "C (C=10-20 uM)"}
{"smiles": "NC(=O)c1ccnc(C2(CNc3ccc(-c4ccc5[nH]ncc5c4)nn3)CCC2)c1", "Mean AC1.4": "C (C=10-20 uM)"}
{"smiles": "Nc1n[nH]c2ccc(-c3ccc(NCC4(c5ccc(F)cn5)CCC4)nn3)cc12", "note": "[[6-(3-amino(1H-indazol-5-yl))pyridazin-3-yl]{[(5-fluoro(2-pyridyl))cyclobutyl]methyl}amine]", "Mean AC1.4": "A (A=<1 uM)"}
{"smiles": "CC(C)(C)OC(=O)N1CCN(C(=O)c2ccc(NCC(C)(C)c3ccc(F)cc3)nn2)C(CO)C1", "note": "(stereo not shown)", "Mean AC1.4": "D (D=>20 uM)"}
{"smiles": "Nc1n[nH]c2ccc(-c3ccc(NCC4(c5ccccc5F)CCCC4)nn3)cc12", "note": "[[6-(3-amino(1H-indazol-5-yl))pyridazin-3-yl]{[(2-fluorophenyl)cyclopentyl]meth-yl}amine]", "Mean AC1.4": "A (A=<1 uM)"}
{"smiles": "CC(C)(CNc1ccc(-c2cccc3[nH]ncc23)nn1)c1ccc(F)cc1", "note": "[(6-(1H-indazol-4-yl)pyridazin-3-yl)[2-(4-fluorophenyl)-2-methylpropyl]amine]", "Mean AC1.4": "A (A=<1 uM)"}
{"test_system": "rabbit skeletal myofibrils (fast skeletal myofibrils)", "test": "Activation of fast skeletal myofibrils (PUMA assay, PK/LDH-coupled ATPase at pCa25)", "format": "biochemical", "conditions": "median AC1.4 class, procedure of Example 39", "method": "as §1, §2, §3, §4, §5"}
{"smiles": "CC(C)(Nc1ccc(-c2ncc(C(N)=O)s2)nn1)c1ncccc1Cl", "note": "[2-(6-{[1-(3-chloro(2-pyridyl))-isopropyl]amino}pyridazin-3-yl)-1,3-thiazole-5-carboxamide]", "Mean AC1.4": "B (B=1-10 uM)"}
{"smiles": "NC(=O)C1CN(C(=O)c2cnc(-c3ccc(NCC4(c5ncccc5F)CCC4)nn3)s2)CCN1", "note": "(stereo not shown) [4-({2-[6-({[(3-fluoro-2-pyridyl)cyclobutyl]methyl}ami-no)pyridazin-3-yl]-1,3-thiazol-5-yl}carbonyl)piperazine-2-carboxamide]", "Mean AC1.4": "B (B=1-10 uM)"}
{"smiles": "NC(=O)c1ncc(-c2ccc(NCC3(c4ncccc4F)CCC3)nn2)o1", "Mean AC1.4": "B (B=1-10 uM)"}
{"smiles": "NC(=S)c1cnc(-c2ccc(NCC3(c4ncccc4F)CCC3)nn2)s1", "note": "[amino{2-[6-({[(3-fluoro(2-pyridyl))cyclobutyl]methyl}ami-no)pyridazin-3-yl](1,3-thiazol-5-yl)}methane-1-thione]", "Mean AC1.4": "A (A=<1 uM)"}
{"smiles": "Fc1cccnc1C1(CNc2ccc(-c3ncccn3)nn2)CCC1", "note": "[{[(3-fluoro(2-pyridyl))cyclobutyl]methyl}(6-pyrimidin-2-ylpyridazin-3-yl)amine]", "Mean AC1.4": "B (B=1-10 uM)"}
{"smiles": "CC(C)n1[nH]c(=O)c2cc(-c3ccc(NCC4(c5ncccc5F)CCC4)nn3)ccc21", "Mean AC1.4": "C (C=10-20 uM)"}
{"smiles": "O=C(NCc1cnc(-c2ccc(NCC3(c4ncccc4F)CCC3)nn2)s1)c1ncn[nH]1", "note": "[1H-1,2,4-triazol-5-yl-N-({2-[6-({[(3-fluoro(2-pyridyl))cyclobutyl]methyl}ami-no)pyridazin-3-yl](1,3-thiazol-5-yl)}methyl)carboxamide]", "Mean AC1.4": "A (A=<1 uM)"}
{"smiles": "Cn1nc(C(N)=O)cc1-c1ccc(NCC2(c3ncccc3F)CCC2)nn1", "Mean AC1.4": "B (B=1-10 uM)"}
{"smiles": "CC(C)(O)CNC(=O)c1ccc(F)c(-c2ccc(NC3(c4ccc(F)cc4)CCC3)nn2)c1", "Mean AC1.4": "B (B=1-10 uM)"}
{"test_system": "rabbit skeletal myofibrils (fast skeletal myofibrils)", "test": "Activation of fast skeletal myofibrils (PUMA assay, PK/LDH-coupled ATPase at pCa25)", "format": "biochemical", "conditions": "median AC1.4 reported as class; procedure of Example 39", "method": "as §1, §2, §3, §4, §5"}
{"smiles": "NC(=O)c1cccc(-c2ccc(NCC3(c4ncccc4F)CCC3)nn2)c1O", "note": "[3-[6-({[(3-fluoro(2-pyridyl))cyclobutyl]methyl}ami-no)pyridazin-3-yl]-2-hydroxybenzamide]", "Mean AC1.4": "A (A=<1 uM)"}
{"smiles": "CC1(O)CC(NC(=O)c2cccc(-c3ccc(NC[C@]4(c5ncccc5F)C[C@H](F)C4)nn3)c2)C1", "note": "(stereo partly shown) [{3-[6-({[3-fluoro-1-(3-fluoro(2-pyridyl))cyclobutyl]methyl}ami-no)pyridazin-3-yl]phenyl}-N-(3-hydroxy-3-methylcyclobutyl)carboxamide]", "Mean AC1.4": "B (B=1-10 uM)"}
{"smiles": "NC(=O)Cc1cnc(-c2ccc(NC[C@]3(c4ncccc4F)C[C@H](F)C3)nn2)s1", "note": "[2-{2-[6-({[3-fluoro-1-(3-fluoro(2-pyridyl))cyclobutyl]methyl}ami-no)pyridazin-3-yl]-1,3-thiazol-5-yl}acetamide]", "Mean AC1.4": "B (B=1-10 uM)"}
{"smiles": "Cc1cc(C(N)=O)cc(-c2ccc(NC[C@]3(c4ncccc4F)C[C@H](F)C3)nn2)c1", "note": "[3-[6-({[3-fluoro-1-(3-fluoro(2-pyridyl))cyclobutyl]methyl}ami-no)pyridazin-3-yl]-5-methylbenzamide]", "Mean AC1.4": "B (B=1-10 uM)"}
{"smiles": "NC(=O)c1cc(-c2ccc(NCC3(c4ncccc4F)CCC3)nn2)c[nH]c1=O", "note": "[5-[6-({[(3-fluoro(2-pyridyl))cyclobutyl]methyl}ami-no)pyridazin-3-yl]-2-oxohydropyridine-3-carboxamide]", "Mean AC1.4": "C (C=10-20 uM)"}
{"smiles": "CNC(=O)N(C)c1ccc(-c2ccc(NC[C@]3(c4ncccc4F)C[C@H](F)C3)nn2)cc1", "note": "[N-{4-[6-({[3-fluoro-1-(3-fluoro(2-pyridyl))cyclobutyl]methyl}ami-no)pyridazin-3-yl]phenyl}-N-methyl(methylamino)carboxamide]", "Mean AC1.4": "D (D=>20 uM)"}
{"smiles": "O=C1NCc2ccc(-c3ccc(NC[C@]4(c5ncccc5F)C[C@H](F)C4)nn3)cc21", "note": "[6-[6-({[3-fluoro-1-(3-fluoro(2-pyridyl))cyclobutyl]methyl}ami-no)pyridazin-3-yl]isoindolin-1-one]", "Mean AC1.4": "B (B=1-10 uM)"}
{"smiles": "CC(C)(Nc1ccc(-c2ncc(CC(N)=O)s2)nn1)c1ncccc1Cl", "note": "[2-[2-(6-{[1-(3-chloro(2-pyridyl))-isopropyl]amino}pyridazin-3-yl)-1,3-thiazol-5-yl]acetamide]", "Mean AC1.4": "D (D=>20 uM)"}
{"smiles": "OC[C@H]1CNCCN1Cc1cnc(-c2ccc(NCC3(c4ncccc4F)CCC3)nn2)s1", "note": "[[(2R)-1-({2-[6-({[(3-fluoro(2-pyridyl))cyclobutyl]methyl}ami-no)pyridazin-3-yl](1,3-thiazol-5-yl)}methyl)piperazin-2-yl]methan-1-ol]", "Mean AC1.4": "C (C=10-20 uM)"}
